In PMC3639484 (Journal of chromatography. A, 2013):

Test: HILIC/SALT
Assay type: physicochemical
Conditions: isocratic acetonitrile 0%, 10%, 20%, 30%, 40%, 50% and 60% in 0.2% aq. H3PO4, 30 °C

Substance: Ac-KWKSFLKTFSKAKKKKLKTLLKAISK-NH2 [Peptide D14]
- retention on Penta-HILIC column: No retention
